Measurements from patent publication US6218406A, “Farnesyl transferase inhibitors, their preparation, the pharmaceutical compositions which contain them and their use in the preparation of medicaments” (Aventis Pharma S.A., priority 1996, dated 2001).
Structures can show the parent of a compound that is named as a salt.

What follows are compounds tested against farnesyl transferase (Homo sapiens, UniProt P49354+P49356) (assay: Farnesyl transferase inhibition, [3H]-farnesylation of biotinylated K-ras C-terminal peptide (SPA assay)). Settings: In vitro inhibitory activity (K-Ras) IC50, K-Ras substrate; 60 min at 37° C.; mean of two IC50 values.
Assay type: biochemical
Description: The farnesyl transferase activity was measured by the amount farnesylated of K-ras substrate or of substrate derived from the peptide corresponding to its C-terminal part, the farnesyl group being introduced by farnesyl pyrophosphate (FPP).
It was then brought into contact with PVT-streptavidin (Amersham)® beads and was quantified by proximity scintillation (SPA assay) between the tritium and the PVT beads, by virtue of the streptavidin/biotin interaction.
Experimentally, farnesyl transferase purified according to the appended protocol was diluted, for this assay, to a concentration such that a consumption of substrates of less than 30% was obtained.
The reaction, carried out in Optiplates 96° microtitration plates, was initiated by the enzyme and lasted sixty minutes at 37° C. It was stopped by addition of 150 μl of mixture of a blocking buffer at pH 4 composed of 0.2M H3 PO4, 1.5 mM MgCl2, 0.5% (w/v) BSA, 0.05% (w/v) sodium azide containing 200 μg of PVT-streptavidin beads.
After slow agitation for thirty minutes (in order to remove the chemiluminescence), the plates were read as [^3 H]CPM in a Top Count® (Packard) scintillation counter for microplates, where they were converted into [^3 H]DPM from a range of coloured agent attenuating the scintillation (quenching).
The percentages of inhibition were calculated with respect to an inhibitor-free control after subtraction from all the values of that of a blank which only contained the substrates and the buffer.
The IC50 values were calculated or measured, from the inhibitions obtained at nine different concentrations, with Enzfitter® or Grafit® software. The IC50 values which appear in the results are the mean of measurements and calculations of two IC50 values.

| SMILES | IC50 [µM] |
| --- | --- |
| C=C(C(=O)N1C[C@H]2[C@@]3(c4ccc(C)s4)CC[C@@H](c4ccccc43)[C@]2(C(=O)O)C1)c1ccccc1OC (racemic) [Example 48, (3aRS,4SR,9SR,9aRS)-4,9-ethano-2-[2-(2-methoxyphenyl)propenoyl]-9-(5-methyl-2-thienyl)-2,3,3a,4,9,9a-hexahydro-1H-benzo[f]isoindole-3a-carboxylic Acid] | 0.095 |

Same assay, conditions: K-Ras substrate; 60 min at 37° C.; mean of two IC50 values; read-out: In vitro inhibitory activity (K-Ras) IC50

| SMILES | IC50 [µM] |
| --- | --- |
| C=C(C(=O)N1C[C@@H]2[C@]3(c4ccc(OC)cc4)CC[C@@](C)(c4ccccc43)[C@@]2(C(=O)O)C1)c1ccccc1OC (racemic) [Example 101, (3aRS,4SR,9SR,9aRS)-4,9-ethano-2-[2-(2-methoxyphenyl)propenoyl]-9-(4-methoxyphenyl)-4-methyl-2,3,3a,4,9,9a-hexahydro-1H-benzo[f]isoindole-3a-carboxylic Acid] | < 0.019 |
| C=C(C(=O)N1C[C@@H]2[C@]3(c4ccc(C)cc4)CC[C@@H](c4c(OC)cccc43)[C@]2(C(=O)OC)C1)c1ccccc1OC (racemic) [Example 98, methyl (3aRS,4SR,9SR,9aRS)-4,9-ethano-5-methoxy-2-[2-(2-methoxyphenyl)propenoyl]-9-(4-methylphenyl)-2,3,3a,4,9,9a-hexahydro-1H-benzo[f]isoindole-3a-carboxylate] | 0.663 |
| C=C(C(=O)N1C[C@H]2[C@@]3(c4cccc(F)c4)CC[C@H](c4ccccc43)[C@@]2(C(=O)NCc2cccnc2)C1)c1ccccc1OC (relative stereo) [Example 87, (3aRS,4SR,9SR,9aRS)-4,9-ethano-9-(3-fluorophenyl)-2-[2-(2-methoxyphenyl)propenoyl]-2,3,3a,4,9,9a-hexahydro-1H-benzo[f]isoindole-3a-N-(3-pyridylmethyl)carboxamide] | 0.064 |
| C=C(C(=O)N1C[C@@H]2[C@]3(c4cccc(C#N)c4)CC[C@@H](c4ccccc43)[C@]2(C(=O)OC)C1)c1ccccc1OC (racemic) [Example 96, methyl (3aRS,4SR,9SR,9aRS)-9-(3-cyanophenyl)-4,9-ethano-2-[2-(2-methoxyphenyl)propenoyl]-2,3,3a,4,9,9a-hexahydro-1H-benzo[f]isoindole-3a-carboxylate] | 0.955 |
| C=C(C(=O)N1C[C@H]2[C@@]3(c4cccc(Cl)c4)CC[C@H](c4ccccc43)[C@@]2(C(=O)NCc2cccnc2)C1)c1ccccc1OC (relative stereo) [Example 90, (3aRS,4SR,9SR,9aRS)-9-(3-chlorophenyl)-4,9-ethano-2-[2-(2-methoxyphenyl)propenoyl]-2,3,3a,4,9,9a-hexahydro-1H-benzo[f]isoindole-3a-N-(3-pyridylmethyl)carboxamide] | 0.068 |
| C=C(C(=O)N1C[C@@H]2[C@]3(c4cccc(Br)c4)CC[C@@H](c4ccccc43)[C@]2(C(=O)OC)C1)c1ccccc1OC (racemic) [Example 83, methyl (3aRS,4SR,9SR,9aRS)-9-(3-bromophenyl)-4,9-ethano-2-[2-(2-methoxyphenyl)propenoyl]-2,3,3a,4,9,9a-hexahydro-1H-benzo[f]isoindole-3a-carboxylate] | 0.319 |
| C=C(C(=O)N1C[C@H]2[C@@]3(c4ccc(C)cc4)CC[C@H](c4c(OC)cccc43)[C@@]2(C(=O)O)C1)c1ccccc1OC (single isomer, unassigned) [Example 100, Dextrorotatory Enantiomer of (3aRS,4SR,9SR,9aRS)-4,9-ethano-5-methoxy-2-[2-(2-methoxyphenyl)propenoyl]-9-(4-methylphenyl)-2,3,3a,4,9,9a-hexahydro-1H-benzo[f]isoindole-3a-carboxylic Acid] | < 0.019 |
| C=C(C(=O)N1C[C@@H]2[C@]3(c4ccc5c(c4)OCCO5)CC[C@@H](c4ccccc43)[C@]2(C(=O)OC)C1)c1ccccc1OC (racemic) [Example 31, methyl (3aRS,4SR,9SR,9aRS)-9-(2,3-dihydro-1,4-benzodioxin-6-yl)-4,9-ethano-2-[2-(2-methoxyphenyl)propenoyl]-2,3,3a,4,9,9a-hexahydro-1H-benzo[f]isoindole-3a-carboxylate] | 0.101 |

The next lines start with the values.

| IC50 [µM] | SMILES |
| --- | --- |
| 1.8 | C=C(C(=O)N1C[C@H]2[C@@]3(c4ccc(C)cc4)CC[C@H](c4ccccc43)[C@@]2(C(=O)O)C1)c1ccccc1OC (single isomer, unassigned) [Example 4, laevorotatory enantiomer of (3aRS,4SR,9RS,9aRS)-4,9-ethano-2-[2-(2-methoxyphenyl)propenoyl]-9-(4-methylphenyl)-2,3,3a,4,9,9a-hexahydro-1H-benzo[f]isoindole-3a-carboxylic acid] |
| 0.17 | C=C(C(=O)N1C[C@@H]2[C@]3(c4ccc(C)cc4)CC[C@@H](c4ccccc43)[C@]2(C(N)=O)C1)c1ccccc1OC (racemic) [Example 15, (3aRS,4SR,9SR,9aRS)-3a-carbamoyl-4,9-ethano-2-[2-(2-methoxyphenyl)propenoyl]-9-(4-methylphenyl)-2,3,3a,4,9,9a-hexahydro-1H-benzo[f]isoindole] |
| 0.04 | C=C(C(=O)N1C[C@@H]2[C@]3(c4ccc(F)cc4)CC[C@@H](c4ccccc43)[C@]2(C(=O)O)C1)c1ccccc1OC (racemic) [Example 65, (3aRS,4SR,9SR,9aRS)-4,9-ethano-9-(4-fluorophenyl)-2-[2-(2-methoxyphenyl)propenoyl]-2,3,3a,4,9,9a-hexahydro-1H-benzo[f]isoindole-3a-carboxylic acid] |
| 0.005 | C=C(C(=O)N1C[C@@H]2[C@]3(c4cccc(F)c4)CC[C@@H](c4ccccc43)[C@]2(C(=O)O)C1)c1ccccc1OC (racemic) [Example 86, (3aRS,4SR,9SR,9aRS)-4,9-ethano-9-(3-fluorophenyl)-2-[2-(2-methoxyphenyl)propenoyl]-2,3,3a,4,9,9a-hexahydro-1H-benzo[f]isoindole-3a-carboxylic Acid] |
| 0.305 | C=C(C(=O)N1C[C@@H]2[C@]3(c4ccc(C)cc4)CC[C@@H](c4ccccc43)[C@]2(C(=O)OC)C1)c1ccccc1OC (racemic) [Example 1, methyl (3aRS,4SR,9SR,9aRS)-4,9-ethano-2-[2-(2-methoxyphenyl)propenoyl]-9-(4-methylphenyl)-2,3,3a,4,9,9a-hexahydro-1H-benzo[f]isoindole-3a-carboxylate] |
| 0.273 | C=C(C(=O)N1C[C@@H]2[C@]3(c4ccc(C(F)(F)F)cc4)CC[C@@H](c4ccccc43)[C@]2(C(=O)OC)C1)c1ccccc1OC (racemic) [Example 39, methyl (3aRS,4SR,9SR,9aRS)-4,9-ethano-2-[2-(2-methoxyphenyl)propenoyl]-9-[4-(trifluoromethyl)phenyl]-2,3,3a,4,9,9a-hexahydro-1H-benzo[f]isoindole-3a-carboxylate] |
| 0.048 | C=C(C(=O)N1C[C@@H]2[C@]3(c4ccc(OC)cc4)CC[C@@H](c4ccccc43)[C@]2(C(=O)O)C1)c1ccccc1OC (racemic) [Example 74, (3aRS,4SR,9SR,9aRS)-4,9-ethano-9-(4-methoxyphenyl)-2-[2-(2-methoxyphenyl)propenoyl]-2,3,3a,4,9,9a-hexahydro-1H-benzo[f]isoindole-3a-carboxylic Acid] |
| 0.067 | C=C(C(=O)N1C[C@H]2[C@@]3(c4ccc(OC)cc4)CC[C@H](c4ccccc43)[C@@]2(C(=O)NCc2ccsc2)C1)c1ccccc1OC (relative stereo) [Example 80, (3aRS,4SR,9SR,9aRS)-4,9-ethano-9-(4-methoxyphenyl)-2-[2-(2-methoxyphenyl)propenoyl]-2,3,3a,4,9,9a-hexahydro-1H-benzo[f]isoindole-3a-N-(3-thienylmethyl)carboxamide] |
| 0.132 | C=C(C(=O)N1C[C@@H]2[C@]3(c4ccc5ccccc5c4)CC[C@@H](c4ccccc43)[C@]2(C(=O)O)C1)c1ccccc1OC (relative stereo) [Example 46, sodium salt of (3aRS,4SR,9SR,9aRS)-4,9-ethano-2-[2-(2-methoxyphenyl)propenoyl]-9-(2-naphthyl)-2,3,3a,4,9,9a-hexahydro-1H-benzo[f]isoindole-3a-carboxylic Acid] |
| 0.009 | C=C(C(=O)N1C[C@@H]2[C@]3(c4ccc(C(F)(F)F)cc4)CC[C@@H](c4ccccc43)[C@]2(C(=O)O)C1)c1ccccc1OC (single isomer, unassigned) [Example 41, dextrorotatory enantiomer of (3aRS,4SR,9SR,9aRS)-4,9-ethano-2-[2-(2-methoxyphenyl)propenoyl]-9-[4-(trifluoromethyl)phenyl]-2,3,3a,4,9,9a-hexahydro-1H-benzo[f]isoindole-3a-carboxylic Acid] |
| 0.36 | C=C(C(=O)N1C[C@@H]2[C@]3(c4ccc(C)cc4)CC[C@@H](c4ccccc43)[C@]2(C(=O)NO)C1)c1ccccc1OC (racemic) [Example 16, (3aRS,4SR,9SR,9aRS)-4,9-ethano-2-[2-(2-methoxyphenyl)propenoyl]-9-(4-methylphenyl)-2,3,3a,4,9,9a-hexahydro-1H-benzo[f]isoindole-3a-hydroxamic acid] |
